From patent US11395847B2, “Acylated GLP-1/GLP-2 dual agonists” (Zealand Pharma A/S, priority 2016, dated 2022)
Like-named read-outs stand apart in the source and are kept apart here. *1 amine or outer side, *2 acyl side, *3 side chain or, on linkers, in order; H or OH if unused. Where a SMILES comes first, the peptide text is derived from it. Side-chain parts run from the residue outwards. [ ]: non-standard residue; d: D form. The star is where a group is joined. C20 diacid = O=C(O)CCCCCCCCCCCCCCCCCCC(=O)*; γGlu = O=C(O)[C@H](CCC(=O)[*:2])N[*:1]; AEEA = NCCOCCOCC(=O)O; Aib = CC(C)(N)C(=O)O

Tests used:
[1] = Chemical stability (RP-HPLC normalized purity after incubation at 40° C.); format: physicochemical; conditions: 14-day incubation, 0.2 mg/ml, normalized purity (area-%); for pH 7 normalized stability: pH 7, 40° C.
Procedure, shortened: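 Peptide at 0.2 mg/ml final in water adjusted to pH 6, 7, 7.5 or 9, incubated at 40° C for 14 days. Purity measured as main-peak area-% by C18 RP-HPLC (acetonitrile/TFA/water gradient, UV 220 nm) and normalized to T=0 set at 100 for each pH.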

[2] = Solubility assessment (turbidity absorbance at 325 nm); format: physicochemical
Description: A stock solution of the test peptide (2 mg/ml; determined from the weighed amount of peptide) in demineralized water adjusted to pH 2.5 with HCl was prepared, and aliquots were diluted 1:1 in 100 mM acetate buffer (pH 4.0 and pH 5.0), 100 mM histidine buffer (pH 6.0 and pH 7.0) and 100 mM phosphate buffer (pH 6.0, pH 7.0 and pH 7.5), respectively, and loaded in a standard flat-bottom, non-sterile 96-well UV Microplate. The absorbance of samples (single samples, n=1) at 280 and 325 nm was measured in an absorbance-based plate reader, which was preheated to ambient temperature (typically 25° C.).

[3] = target: T1, human GLP-2 receptor (Homo sapiens, UniProt O95838, D470N); assay: GLP-2 receptor potency assay (cAMP ALPHASCREEN, HEK293 cells stably expressing GLP-2 R); format: cell-based; conditions: cAMP response, HEK293 cells expressing human GLP-2 R; read-out: EC50 GLP-2
T1 construct: expressed in transfected cells
T1 sequence (O95838 1-553 D470N): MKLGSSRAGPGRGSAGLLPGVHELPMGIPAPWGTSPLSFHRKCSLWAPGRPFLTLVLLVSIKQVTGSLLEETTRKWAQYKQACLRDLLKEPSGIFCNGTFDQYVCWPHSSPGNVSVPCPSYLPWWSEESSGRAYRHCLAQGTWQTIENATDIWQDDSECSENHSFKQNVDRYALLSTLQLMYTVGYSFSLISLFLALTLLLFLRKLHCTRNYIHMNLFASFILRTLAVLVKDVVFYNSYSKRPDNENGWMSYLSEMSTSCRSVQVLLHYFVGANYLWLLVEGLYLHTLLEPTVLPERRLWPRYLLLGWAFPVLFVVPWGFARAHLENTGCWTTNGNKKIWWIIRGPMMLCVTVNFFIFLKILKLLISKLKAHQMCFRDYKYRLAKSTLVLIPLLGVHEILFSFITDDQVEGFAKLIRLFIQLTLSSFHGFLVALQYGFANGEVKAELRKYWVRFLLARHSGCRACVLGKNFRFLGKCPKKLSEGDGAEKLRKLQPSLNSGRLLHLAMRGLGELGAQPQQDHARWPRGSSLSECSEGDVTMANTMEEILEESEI
Source text: One useful in vitro assay for measuring GLP-1 and GLP-2 receptor activity is quantitation of cAMP, i.e. 3′-5′-cyclic adenosine monophosphate, which is a second messenger essential in many biological processes, and one of the most ubiquitous mechanisms for regulating cellular functions.
For subcloning into a mammalian expression vector, primers for subcloning were obtained from DNA-Technology, Risskov, Denmark. The 5′ and 3′ primers used for the PCR reaction include terminal restriction sites for cloning and the context of the 5′ primer is modified to a Kozak consensus without changing the sequence of the product encoded by the ORF. […] The generated PCR product was purified using GFX PCR and Gel band purification kit, digested with restriction enzymes and cloned into the mammalian expression vector using Rapid DNA Ligation Kit. Ligation reaction was transformed to XL10 Gold Ultracompetent cells and colonies were picked for DNA production using ENDOFREE® Plasmid maxi kit. Subsequent sequence analysis was conducted by MWG Eurofins, Germany.
HEK293 cells were transfected using the LIPOFECTAMINE® PLUS transfection method. The day before transfection, HEK293 cells were seeded in two T75 flasks at a density of 2×10^6 cells/T75 flask in cell culturing medium without antibiotics. On the day of transfection, cells were washed with 1× DPBS and medium was replaced with OPTI-MEM© to a volume of 5 mL/T75 flask before addition of LIPOFECTAMINE®-plasmid complexes were added gently and drop wise to the cells in T75 flasks and replaced with growth medium after 3 hours and again to growth medium supplemented with 500 μg/mL G418 after 24 hours. Following 4 weeks in G418 selection, clones were picked and tested in a functional GLP-2 receptor potency assay as described below.
The cAMP ALPHASCREEN® assay from Perkin Elmer was used to quantitate the cAMP response to activation of the GLP1 and GLP2 receptor, respectively. […] Data from test compounds eliciting an increase in the intracellular level of cAMP were normalized relative to the positive and negative control (vehicle) to calculate the EC50 and maximal response from the concentration response curve.

[4] = 100 mM acetate buffer pH 4.0, ambient temperature, read-out: Solubility Acetate buffer pH 4
[5] = 100 mM acetate buffer pH 5.0, ambient temperature, read-out: Solubility Acetate buffer pH 5
[6] = 100 mM histidine buffer pH 6.0, ambient temperature, read-out: Solubility Histidine buffer pH 6
[7] = 100 mM histidine buffer pH 7.0, ambient temperature, read-out: Solubility Histidine buffer pH 7
[8] = 100 mM phosphate buffer pH 6.0, ambient temperature, read-out: Solubility Phosphate buffer pH 6
[9] = 100 mM phosphate buffer pH 7.0, ambient temperature, read-out: Solubility Phosphate buffer pH 7
[10] = 100 mM phosphate buffer pH 7.5, ambient temperature, read-out: Solubility Phosphate buffer pH 7.5

Compound	pH 6 normalized stability ([1]; pH 6, 40° C.)	pH 7 normalized stability [1]	solubility [2, 4]	solubility [2, 5]	solubility [2, 6]	solubility [2, 7]	solubility [2, 8]	solubility [2, 9]	solubility [2, 10]	EC50 [3]
CC[C@H](C)[C@H](NC(=O)[C@H](Cc1ccccc1)NC(=O)[C@H](CC(=O)O)NC(=O)[C@H](CCCNC(=N)N)NC(=O)[C@H](C)NC(=O)[C@H](C)NC(=O)[C@H](CCC(N)=O)NC(=O)[C@H](CCCCNC(=O)CC[C@H](NC(=O)CCCCCCCCCCCCCCCCC(=O)O)C(=O)O)NC(=O)[C@H](CC(=O)O)NC(=O)[C@H](CC(C)C)NC(=O)[C@@H](NC(=O)[C@@H](NC(=O)[C@H](C)NC(=O)[C@H](CC(C)C)NC(=O)[C@H](CCC(=O)O)NC(=O)[C@H](CO)NC(=O)[C@@H](NC(=O)[C@H](Cc1ccccc1)NC(=O)[C@H](CO)NC(=O)CNC(=O)[C@H](CCC(=O)O)NC(=O)C(C)(C)NC(=O)[C@@H](N)Cc1c[nH]cn1)[C@@H](C)O)[C@@H](C)O)[C@@H](C)CC)C(=O)N[C@@H](C)C(=O)N[C@@H](Cc1c[nH]c2ccccc12)C(=O)N[C@@H](CC(C)C)C(=O)N[C@H](C(=O)N[C@@H](CCC(=O)O)C(=O)N[C@@H](Cc1c[nH]cn1)C(=O)N[C@@H](CCCCN)C(=O)N[C@H](C(=O)N[C@H](C(=O)N[C@@H](CC(=O)O)C(=O)O)[C@@H](C)O)[C@@H](C)CC)[C@@H](C)CC [Compound 24] (HELM PEPTIDE1{H.[Aib].E.G.S.F.T.S.E.L.A.T.I.L.D.K.Q.A.A.R.D.F.I.A.W.L.I.E.H.K.I.T.D}|PEPTIDE2{[O=C(O)CCCCCCCCCCCCCCCCC(=O)[*:2]].[gGlu]}$PEPTIDE1,PEPTIDE2,16:R3-2:R2$$$V2.0)	B (>80% stability)	A (>90% normalised stability)	< 1000 µg/mL	< 1000 µg/mL	≥ 1000 µg/mL	≥ 1000 µg/mL	≥ 1000 µg/mL	≥ 1000 µg/mL	≥ 1000 µg/mL	0.17 nM
CC[C@H](C)[C@H](NC(=O)[C@H](Cc1ccccc1)NC(=O)[C@H](CC(=O)O)NC(=O)[C@H](CCCNC(=N)N)NC(=O)[C@H](C)NC(=O)[C@H](C)NC(=O)[C@H](CCC(N)=O)NC(=O)[C@H](CCCCNC(=O)CC[C@H](NC(=O)CCCCCCCCCCCCCCCCC(=O)O)C(=O)O)NC(=O)[C@H](CC(=O)O)NC(=O)[C@H](CC(C)C)NC(=O)[C@@H](NC(=O)[C@@H](NC(=O)[C@H](C)NC(=O)[C@H](CC(C)C)NC(=O)[C@H](CCC(=O)O)NC(=O)[C@H](CO)NC(=O)[C@@H](NC(=O)[C@H](Cc1ccccc1)NC(=O)[C@@H](NC(=O)CNC(=O)[C@H](CCC(=O)O)NC(=O)C(C)(C)NC(=O)[C@@H](N)Cc1c[nH]cn1)[C@@H](C)O)[C@@H](C)O)[C@@H](C)O)[C@@H](C)CC)C(=O)N[C@@H](C)C(=O)N[C@@H](Cc1c[nH]c2ccccc12)C(=O)N[C@@H](CC(C)C)C(=O)N[C@H](C(=O)N[C@@H](CCC(=O)O)C(=O)N[C@@H](Cc1c[nH]cn1)C(=O)N[C@@H](CCCCN)C(=O)N[C@H](C(=O)N[C@H](C(=O)N[C@@H](CC(=O)O)C(=O)O)[C@@H](C)O)[C@@H](C)CC)[C@@H](C)CC [Compound 25] (HELM PEPTIDE1{H.[Aib].E.G.T.F.T.S.E.L.A.T.I.L.D.K.Q.A.A.R.D.F.I.A.W.L.I.E.H.K.I.T.D}|PEPTIDE2{[O=C(O)CCCCCCCCCCCCCCCCC(=O)[*:2]].[gGlu]}$PEPTIDE1,PEPTIDE2,16:R3-2:R2$$$V2.0)		A (>90% normalised stability)	< 1000 µg/mL	< 1000 µg/mL	≥ 1000 µg/mL	≥ 1000 µg/mL	≥ 1000 µg/mL	≥ 1000 µg/mL	≥ 1000 µg/mL	0.33 nM
CC[C@H](C)[C@H](NC(=O)[C@H](Cc1ccccc1)NC(=O)[C@H](CC(=O)O)NC(=O)[C@H](CCCNC(=N)N)NC(=O)[C@H](C)NC(=O)[C@H](C)NC(=O)[C@H](CCC(N)=O)NC(=O)[C@H](CCC(=O)O)NC(=O)[C@H](CC(=O)O)NC(=O)[C@H](CC(C)C)NC(=O)[C@@H](NC(=O)[C@@H](NC(=O)[C@H](C)NC(=O)[C@H](CCCCNC(=O)COCCOCCNC(=O)COCCOCCNC(=O)CC[C@H](NC(=O)CCCCCCCCCCCCCCCCCCC(=O)O)C(=O)O)NC(=O)[C@H](CCC(=O)O)NC(=O)[C@H](CO)NC(=O)[C@@H](NC(=O)[C@H](Cc1ccccc1)NC(=O)[C@H](CO)NC(=O)CNC(=O)[C@H](CCC(=O)O)NC(=O)C(C)(C)NC(=O)[C@@H](N)Cc1c[nH]cn1)[C@@H](C)O)[C@@H](C)O)[C@@H](C)CC)C(=O)N[C@@H](C)C(=O)N[C@@H](Cc1c[nH]c2ccccc12)C(=O)N[C@@H](CC(C)C)C(=O)N[C@H](C(=O)N[C@@H](CCC(=O)O)C(=O)N[C@@H](Cc1c[nH]cn1)C(=O)N[C@@H](CCCCN)C(=O)N[C@H](C(=O)N[C@H](C(=O)N[C@@H](CC(=O)O)C(=O)O)[C@@H](C)O)[C@@H](C)CC)[C@@H](C)CC [Compound 42] (H-H[Aib]EGSFTSEK([AEEA-AEEA-γGlu-C20 diacid])ATILDEQAARDFIAWLIEHKITD-OH)		A (>90% normalised stability)								0.33 nM
CC[C@H](C)[C@H](NC(=O)[C@H](Cc1ccccc1)NC(=O)[C@H](CC(=O)O)NC(=O)[C@H](CCCNC(=N)N)NC(=O)[C@H](C)NC(=O)[C@H](C)NC(=O)[C@H](CCC(N)=O)NC(=O)[C@H](CCCCNC(=O)CC[C@H](NC(=O)CCCCCCCCCCCCCCCCC(=O)O)C(=O)O)NC(=O)[C@H](CC(=O)O)NC(=O)[C@H](CC(C)C)NC(=O)[C@@H](NC(=O)[C@@H](NC(=O)[C@H](C)NC(=O)[C@H](CC(C)C)NC(=O)[C@H](CCC(=O)O)NC(=O)[C@H](CO)NC(=O)[C@H](CO)NC(=O)[C@H](Cc1ccccc1)NC(=O)[C@@H](NC(=O)CNC(=O)[C@H](CCC(=O)O)NC(=O)C(C)(C)NC(=O)[C@@H](N)Cc1c[nH]cn1)[C@@H](C)O)[C@@H](C)O)[C@@H](C)CC)C(=O)N[C@@H](C)C(=O)N[C@@H](Cc1c[nH]c2ccccc12)C(=O)N[C@@H](CC(C)C)C(=O)N[C@H](C(=O)N[C@@H](CCC(N)=O)C(=O)N[C@@H](Cc1c[nH]cn1)C(=O)N[C@@H](CCCCN)C(=O)N[C@H](C(=O)N[C@H](C(=O)N[C@@H](CC(=O)O)C(=O)O)[C@@H](C)O)[C@@H](C)CC)[C@@H](C)CC [Compound 17] (HELM PEPTIDE1{H.[Aib].E.G.T.F.S.S.E.L.A.T.I.L.D.K.Q.A.A.R.D.F.I.A.W.L.I.Q.H.K.I.T.D}|PEPTIDE2{[O=C(O)CCCCCCCCCCCCCCCCC(=O)[*:2]].[gGlu]}$PEPTIDE1,PEPTIDE2,16:R3-2:R2$$$V2.0)			< 1000 µg/mL	< 1000 µg/mL	≥ 1000 µg/mL	≥ 1000 µg/mL	≥ 1000 µg/mL	≥ 1000 µg/mL	≥ 1000 µg/mL	0.33 nM
